Source: ChEMBL document CHEMBL1157523, “Synthesis and in vivo evaluation of 11-substituted estradiol derivatives as anti-implantation agents” (2008)
The source made the active and inactive calls. The rule behind the calls is not given here.

How the values were obtained:
Format in all cases: functional
[1] = system: Rattus norvegicus; assay: Antiimplantation activity against Sprague-Dawley albino rat at 10 mg/kg, po administered for 1-5 days measured on day 10 of pregnancy relative to control
[2] = system: Rattus norvegicus; assay: Antiimplantation activity against Sprague-Dawley albino rat at 5 mg/kg, po administered for 1-5 days measured on day 10 of pregnancy relative to control
[3] = system: Rattus norvegicus; assay: Antiimplantation activity against Sprague-Dawley albino rat at 2 mg/kg, po administered for 1-5 days measured on day 10 of pregnancy relative to control
[4] = system: Rattus norvegicus; assay: Antiimplantation activity against Sprague-Dawley albino rat at 1.5 mg/kg, po administered for 1-5 days measured on day 10 of pregnancy relative to control
[5] = system: Rattus norvegicus; assay: Antiimplantation activity against Sprague-Dawley albino rat at 1 mg/kg, po administered for 1-5 days measured on day 10 of pregnancy relative to control
[6] = system: Rattus norvegicus; assay: Antiimplantation activity against Sprague-Dawley albino rat at 2.5 mg/kg, po administered for 1-5 days measured on day 10 of pregnancy relative to control
[7] = system: Rattus norvegicus; assay: Antiimplantation activity against Sprague-Dawley albino rat at 1.25 mg/kg, po administered for 1-5 days measured on day 10 of pregnancy relative to control

With `COc1ccc2c(c1)CCC1=C2C(=O)C[C@]2(C)[C@@H](O)CC[C@@H]12` the Activity [1] was 100%, the Activity [2] was 100% and the Activity [3] was “inactive”.

`COc1ccc2c(c1)CCC1=C2C(O)(Cc2ccccc2)C[C@]2(C)[C@@H](O)CC[C@@H]12` (stereo partly specified) was tested, and the Activity [1] was 100%.

`C=CCC1(O)C[C@]2(C)[C@@H](OC(C)=O)CC[C@H]2C2=C1c1ccc(OC)cc1CC2` (stereo partly specified) was tested, and the Activity [1] was 100%.

`C=CCC1=C[C@]2(C)[C@@H](O)CC[C@H]2C2=C1c1ccc(OC)cc1CC2` showed an Activity [1] of 100%.

In the case of `COc1ccc2c(c1)CCC1=C2C(C)(O)C[C@]2(C)[C@@H](O)CC[C@@H]12` (stereo partly specified), the Activity [1] is reported as 100%, the Activity [2] is reported as 100% and the Activity [3] is reported as 100%.

With `C=CCC1(O)C[C@]2(C)[C@@H](O)CC[C@H]2C2=C1c1ccc(OC)cc1CC2` (stereo partly specified) the Activity [1] was 100%, the Activity [2] was 100% and the Activity [4] was 60%. For the same molecule, the Activity [5] was 60% and the Activity [3] was 100%.

In the case of `CCC1(O)C[C@]2(C)[C@@H](O)CC[C@H]2C2=C1c1ccc(OC)cc1CC2` (stereo partly specified), the Activity [1] is reported as 100%, the Activity [2] is reported as 100% and the Activity [5] is reported as 50%. It also gave an Activity [6] of 100% and an Activity [7] of 100%.

Work on `COc1ccc2c(c1)OC(C)(C)C(c1ccccc1)C2c1ccc(OCCN2CCCC2)cc1` (stereo unspecified) [ORMELOXIFENE] yielded an Activity [1] of 100% and an Activity [5] of 100%.
